US20260098030A1, “NEGATIVE ALLOSTERIC MODULATORS OF METABOTROPIC GLUTAMATE RECEPTOR 2” (Vanderbilt University, priority 2022, published 2026)

What follows are compounds tested against T1, human mGlu2 (Homo sapiens, UniProt Q14416) (assay: mGlu GIRK cell-based thallium flux assay, human mGlu2). Details: HEK-293 cells co-expressing human mGlu2 and GIRK, EC80 glutamate.
T1 construct: expressed in transfected cells; host or cells: HEK-293 cells stably co-expressing GIRK channels
Description: Human embryonic kidney (HEK-293) cell lines stably co-expressing human or rat mGlu2 and G protein-coupled inwardly rectifying potassium (GIRK) channels, or human mGlu3 and GIRK, were used for in vitro evaluation of compound activity in thallium flux assay using a fluorescent thallium indicator dye.
The day before the assay, GIRK cells co-expressing human mGlu3, human or rat mGlu2, as described above, were plated in black-walled, clear-bottomed, amine-coated 384-well plates at a density of 15,000 cells/20 μL/well in the assay medium (glutamine-depleted basal DMEM supplemented with 10% dialyzed FBS, 20 mM HEPES, 1 mM sodium pyruvate). Cells were incubated at 37° C. in the presence of 5% CO2. The next day, assay buffer (Hanks balanced salt solution, 20 mM HEPES, 4.16 mM sodium bicarbonate, pH 7.2) was prepared to dilute compounds and Thallos AM fluorescent dye solution. The 2× Thallos dye solution (final concentration 0.34 μM to the cells) was prepared by mixing the dye stock (2.97 mM in DMSO) to 1:1 with 10% pluronic acid before adding to the assay buffer. Cells were washed with assay buffer using a microplate washer to remove the medium, resulting in 20 μL of buffer remaining in each well. Immediately, 20 μL of 2× Thallos dye solution was added to cells, and incubated for one hour at 25° C. During the cell dye loading incubation period, a 10-point concentration serial dilution of compound was created from a 10 mM DMSO compound stock by performing a 1:3 serial dilution in DMSO using the Bravo liquid handler. The 2× compound plate was generated by transferring 0.24 μL of the diluted compound in each well to a daughter plate using an Echo acoustic liquid handler. This is further diluted in 40 μL assay buffer, resulting in a range from 30 μM to 1.5 nM final concentration in the assay. The agonist plate (5×) was prepared to include EC80 glutamate concentration (a concentration to elicit 80% of a maximally effective glutamate concentration) in thallium buffer (125 mM […], 1 mM magnesium sulfate, 1.8 mM calcium sulfate, 5 mM glucose, 10 mM HEPES, pH 7.2, 12.5 mM thallium sulfate).
After dye-loading, cell plates were washed with assay buffer to remove excess extracellular dye using a microplate washer, resulting in 20 μL of buffer remaining in each well. After a ten-minute equilibration period, cell, compound and agonist plates were loaded into a Hamamatsu μCell kinetic imaging plate reader equipped with liquid handler to monitor fluorescence changes at 480 nm excitation and 540 nm emission settings. Briefly, after collection of baseline fluorescence, 20 μL of compound was added and incubated for two minutes and twenty seconds. This is immediately followed by adding 10 μL of glutamate-thallium buffer to the wells containing compound. The fluorescent signal was monitored an additional 2.5 minutes after the glutamate addition. Multiple reference wells containing no compound received either no glutamate (for a baseline reference), EC80 glutamate, or ECmax glutamate (for normalization to maximum response). Fluorescence was measured throughout the experiment at a frequency of 1 measurement per every 2 seconds before the glutamate addition and a frequency of 1 measurement per every 1 second after the glutamate addition. Each compound concentration series occurred one time in each plate, and replicates from two or three plates were used in each experimental run. Thallium solutions were handled and disposed of according to guidelines from the Vanderbilt University Chemical Safety department.
Data were normalized using a static ratio function (F/F0) by dividing every fluorescent measurement by the initial fluorescent value for the corresponding well. The increase in signal resulting from the glutamate/thallium addition of the second add was measured by determining the slope from 3 seconds to 13 seconds after the addition. […]

T1 sequence (Q14416 19-872): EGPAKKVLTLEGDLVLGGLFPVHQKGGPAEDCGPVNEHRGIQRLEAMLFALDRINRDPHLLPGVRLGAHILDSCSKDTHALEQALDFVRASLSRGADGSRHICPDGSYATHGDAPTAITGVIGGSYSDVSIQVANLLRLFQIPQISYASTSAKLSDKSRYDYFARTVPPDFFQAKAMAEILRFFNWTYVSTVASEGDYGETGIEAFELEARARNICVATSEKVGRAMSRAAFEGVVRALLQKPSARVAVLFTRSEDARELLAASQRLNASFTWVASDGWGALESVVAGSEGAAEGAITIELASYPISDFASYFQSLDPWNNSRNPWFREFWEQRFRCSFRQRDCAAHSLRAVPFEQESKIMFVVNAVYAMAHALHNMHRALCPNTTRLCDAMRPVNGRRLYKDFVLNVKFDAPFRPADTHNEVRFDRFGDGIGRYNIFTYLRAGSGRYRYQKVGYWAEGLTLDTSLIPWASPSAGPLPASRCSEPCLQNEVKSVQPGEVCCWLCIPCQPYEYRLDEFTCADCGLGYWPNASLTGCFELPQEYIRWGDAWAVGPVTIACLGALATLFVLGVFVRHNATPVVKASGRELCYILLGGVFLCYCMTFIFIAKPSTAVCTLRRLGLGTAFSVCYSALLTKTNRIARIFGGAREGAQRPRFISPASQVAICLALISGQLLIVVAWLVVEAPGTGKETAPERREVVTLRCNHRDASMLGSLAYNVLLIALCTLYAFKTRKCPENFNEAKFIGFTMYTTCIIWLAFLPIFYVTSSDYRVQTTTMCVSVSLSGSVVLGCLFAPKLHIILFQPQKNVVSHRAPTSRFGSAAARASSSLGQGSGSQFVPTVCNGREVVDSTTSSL

| SMILES | IC50 [nM] |
| --- | --- |
| O=C1NCc2cc(-c3cccc4c3CNC4=O)c(-c3ccc(F)cc3F)cc21 [Compound 136, 6′-(2,4-difluorophenyl)-[4,5′-biisoindoline]-1,1′-dione] | 3180 |
| N#Cc1cccc(-c2cc3c(cc2-c2ccc(C#N)cc2F)C(=O)NC3)c1 [Compound 138, 4-(6-(3-cyanophenyl)-3-oxoisoindolin-5-yl)-3-fluorobenzonitrile] | 537 |
| N#Cc1cccc(-c2cc3c(cc2-c2ccc(F)c(F)c2F)C(=O)NC3)c1 [Compound 139, 3-(1-oxo-6-(2,3,4-trifluorophenyl)isoindolin-5-yl)benzonitrile] | 728 |
| N#Cc1cccc(-c2cc3c(cc2-c2cc(F)c(F)cc2F)C(=O)NC3)c1 [Compound 140, 3-(1-oxo-6-(2,4,5-trifluorophenyl)isoindolin-5-yl)benzonitrile] | 1520 |
| N#Cc1cccc(-c2cc3c(cc2-c2ccc(F)cc2C#N)C(=O)NC3)c1 [Compound 141, 2-(6-(3-cyanophenyl)-3-oxoisoindolin-5-yl)-5-fluorobenzonitrile] | 220 |
| Cc1ccc(-c2cc3c(cc2-c2cccc(C#N)c2)CNC3=O)c(F)c1 [Compound 142, 3-(6-(2-fluoro-4-methylphenyl)-1-oxoisoindolin-5-yl)benzonitrile] | 1310 |
| Cc1cc(F)ccc1-c1cc2c(cc1-c1cccc(C#N)c1)CNC2=O [Compound 143, 3-(6-(4-fluoro-2-methylphenyl)-1-oxoisoindolin-5-yl)benzonitrile] | 1670 |
| N#Cc1cccc(-c2cc3c(cc2-c2ccc(C(F)(F)F)cc2F)C(=O)NC3)c1 [Compound 144, 3-(6-(2-fluoro-4-(trifluoromethyl)phenyl)-1-oxoisoindolin-5-yl)benzonitrile] | 3070 |
| O=C1NCc2cc(-c3cnc(Cl)n3C3CCCCO3)c(-c3ccc(F)cc3F)cc21 (stereo not drawn) [Compound 148, 5-(2-chloro-1-(tetrahydro-2H-pyran-2-yl)-1H-imidazol-5-yl)-6-(2,4-difluorophenyl)isoindolin-1-one] | 454 |
| O=C1NCc2cc(-c3cccc4c3OCC4)c(-c3ccc(F)cc3F)cc21 [Compound 149, 6-(2,4-difluorophenyl)-5-(2,3-dihydrobenzofuran-7-yl)isoindolin-1-one] | 532 |
| CN1CCN(c2ccccc2-c2cc3c(cc2-c2ccc(F)cc2F)C(=O)NC3)CC1 [Compound 150, 6-(2,4-difluorophenyl)-5-(2-(4-methylpiperazin-1-yl)phenyl)isoindolin-1-one] | > 10000 |
| COc1cc(F)ccc1-c1cc2c(cc1-c1cccc(C#N)c1)CNC2=O [Compound 156, 3-(6-(4-fluoro-2-methoxyphenyl)-1-oxoisoindolin-5-yl)benzonitrile] | 660 |
| COc1ccc(-c2cc3c(cc2-c2cccc(C#N)c2)CNC3=O)c(F)c1 [Compound 157, 3-(6-(2-fluoro-4-methoxyphenyl)-1-oxoisoindolin-5-yl)benzonitrile] | 736 |
| N#Cc1cccc(-c2cc3c(cc2-c2ccc(F)c(F)c2)C(=O)NC3)c1 [Compound 158, 3-(6-(3,4-difluorophenyl)-1-oxoisoindolin-5-yl)benzonitrile] | 3730 |
| N#Cc1cccc(-c2cc3c(cc2-c2ccccc2F)C(=O)NC3)c1 [Compound 159, 3-(6-(2-fluorophenyl)-1-oxoisoindolin-5-yl)benzonitrile] | 1720 |
| N#Cc1cccc(-c2cc3c(cc2-c2c(F)cc(F)cc2F)C(=O)NC3)c1 [Compound 160, 3-(1-oxo-6-(2,4,6-trifluorophenyl)isoindolin-5-yl)benzonitrile] | 218 |
| Cc1ccc(-c2cc3c(cc2-c2cccc(C#N)c2)CNC3=O)c(C)c1 [Compound 161, 3-(6-(2,4-dimethylphenyl)-1-oxoisoindolin-5-yl)benzonitrile] | 4590 |
| N#Cc1cccc(-c2cc3c(cc2-c2ccc(OC(F)F)cc2F)C(=O)NC3)c1 [Compound 162, 3-(6-(4-(difluoromethoxy)-2-fluorophenyl)-1-oxoisoindolin-5-yl)benzonitrile] | 891 |
| Cn1cc(S(=O)(=O)Nc2ccccc2-c2cc3c(cc2-c2ccc(F)cc2F)C(=O)NC3)nn1 [Compound 163, N-(2-(6-(2,4-difluorophenyl)-1-oxoisoindolin-5-yl)phenyl)-1-methyl-1H-1,2,3-triazole-4-sulfonamide] | 1110 |
| Cc1ncc(S(=O)(=O)Nc2ccccc2-c2cc3c(cc2-c2ccc(F)cc2F)C(=O)NC3)s1 [Compound 164, N-(2-(6-(2,4-difluorophenyl)-1-oxoisoindolin-5-yl)phenyl)-2-methylthiazole-5-sulfonamide] | 955 |
| Cn1cc(S(=O)(=O)Nc2ccccc2-c2cc3c(cc2-c2ccc(F)cc2F)C(=O)NC3)cn1 [Compound 165, N-(2-(6-(2,4-difluorophenyl)-1-oxoisoindolin-5-yl)phenyl)-1-methyl-1H-pyrazole-4-sulfonamide] | 637 |

Further lines, results first:

| IC50 [nM] | SMILES |
| --- | --- |
| 366 | O=C1NCc2cc(-c3cnn(CC(F)(F)F)c3)c(-c3ccc(F)cc3F)cc21 [Compound 131, 6-(2,4-difluorophenyl)-5-(1-(2,2,2-trifluoroethyl)-1H-pyrazol-4-yl)isoindolin-1-one] |
| 529 | O=C1NCc2cc(-c3cnn(CC4CC4)c3)c(-c3ccc(F)cc3F)cc21 [Compound 132, 5-(1-(cyclopropylmethyl)-1H-pyrazol-4-yl)-6-(2,4-difluorophenyl)isoindolin-1-one] |
| 1820 | CC(C)n1cc(-c2cc3c(cc2-c2ccc(F)cc2F)C(=O)NC3)cn1 [Compound 133, 6-(2,4-difluorophenyl)-5-(1-isopropyl-1H-pyrazol-4-yl)isoindolin-1-one] |
| 2350 | CCn1cc(-c2cc3c(cc2-c2ccc(F)cc2F)C(=O)NC3)cn1 [Compound 134, 6-(2,4-difluorophenyl)-5-(1-ethyl-1H-pyrazol-4-yl)isoindolin-1-one] |
| 2020 | O=C1NCc2cc(-c3ccc(=O)n(C(F)F)c3)c(-c3ccc(F)cc3F)cc21 [Compound 135, 5-(1-(difluoromethyl)-6-oxo-1,6-dihydropyridin-3-yl)-6-(2,4-difluorophenyl)isoindolin-1-one] |
| 816 | Nc1ccccc1-c1cc2c(cc1-c1ccc(F)cc1F)C(=O)NC2 [Compound 137, 5-(2-aminophenyl)-6-(2,4-difluorophenyl)isoindolin-1-one] |
| 5910 | O=C1NCc2cc(-c3ccnn3C3CCCCO3)c(-c3ccc(F)cc3F)cc21 (stereo not drawn) [Compound 147, 6-(2,4-difluorophenyl)-5-(1-(tetrahydro-2H-pyran-2-yl)-1H-pyrazol-5-yl)isoindolin-1-one] |
| 857 | Cn1nncc1-c1cccc(-c2cc3c(cc2-c2ccc(F)cc2F)C(=O)NC3)c1 [Compound 151, 6-(2,4-difluorophenyl)-5-(3-(1-methyl-1H-1,2,3-triazol-5-yl)phenyl)isoindolin-1-one] |
| 693 | [2H]C([2H])([2H])n1nncc1-c1cccc(-c2cc3c(cc2-c2ccc(F)cc2F)C(=O)NC3)c1 [Compound 152, 6-(2,4-difluorophenyl)-5-(3-(1-(methyl-d3)-1H-1,2,3-triazol-5-yl)phenyl)isoindolin-1-one] |
| 727 | [2H]C([2H])(C)n1nncc1-c1cccc(-c2cc3c(cc2-c2ccc(F)cc2F)C(=O)NC3)c1 [Compound 153, 6-(2,4-difluorophenyl)-5-(3-(1-(ethyl-1,1-d2)-1H-1,2,3-triazol-5-yl)phenyl)isoindolin-1-one] |
| > 10000 | O=C1NCc2cc(-c3cnn(CCN4CCOCC4)c3)c(-c3ccc(F)cc3F)cc21 [Compound 154, 6-(2,4-difluorophenyl)-5-(1-(2-morpholinoethyl)-1H-pyrazol-4-yl)isoindolin-1-one] |
| > 10000 | O=C1NCc2cc(-c3cnn(C4COC4)c3)c(-c3ccc(F)cc3F)cc21 [Compound 155, 6-(2,4-difluorophenyl)-5-(1-(oxetan-3-yl)-1H-pyrazol-4-yl)isoindolin-1-one] |
